Measured values taken from patent US20160058881A1, “PRODRUGS WITH PROLONGED ACTION” (INDIANA UNIVERSITY RESEARCH AND TECHNOLOGY CORPORATION, priority 2013, published 2016).
Like-named read-outs stand apart in the source and are kept apart here. Starred links: 1 amine or outer side, 2 acyl side, 3 side chain; linkers in the order of their positions; H or OH if unused. Non-standard residues stand in square brackets, D forms with d. Residues, ends and D or L forms follow the SMILES beside them. Groups on a side chain read outwards from the residue. No end group written: not given here. *: point of attachment. Docosanoyl = CCCCCCCCCCCCCCCCCCCCCC(=O)*; Phe(4-NH2) = Nc1ccc(C[C@H](N)C(=O)O)cc1; Arachidoyl = CCCCCCCCCCCCCCCCCCCC(=O)*; d(εLys) = N[C@H](CCCCN[*:1])C(=O)[*:2]; Aib = CC(C)(N)C(=O)O; Sar = CNCC(=O)O

Legend:
[1] = type: in vitro ADME
Protocol: The peptides described above were incubated in PBS buffer or serum at 37° C. for up to 8 days. Samples were collected at different time points for PBS and plasma and half-life was determined. […] The peptides described above were incubated in PBS buffer or serum at 37° C. for up to 8 days. Samples were collected at different time points for PBS and plasma and half-life was determined. […] The shorter half-life seen when the acylated dipeptide was linked to […] might be due to a conformational change that facilitates cleavage when bound to plasma or alternatively to reduced detection of the acylated form when bound to plasma.

[2] = type: physicochemical; conditions: buffer
Protocol: Preliminary analyses were performed with these crude peptides for an approximation of their relative conversion rates in Phosphate Buffered Saline (PBS) buffer (pH, 7.2) using high performance liquid chromatography (HPLC) and MALDI analysis. The crude peptide samples were dissolved in the PBS buffer at a concentration of 1 mg/mL. […] Aliquots of 100 μL were drawn out at various time intervals, cooled to room temperature and analyzed by HPLC. […] The peptides described above were incubated in PBS buffer or serum at 37° C. for up to 8 days. Samples were collected at different time points for PBS and plasma and half-life was determined. […] The peptides described above were incubated in PBS buffer or serum at 37° C. for up to 8 days. Samples were collected at different time points for PBS and plasma and half-life was determined. […] The shorter half-life seen when the acylated dipeptide was linked to […] might be due to a conformational change that facilitates cleavage when bound to plasma or alternatively to reduced detection of the acylated form when bound to plasma.

[3] = target: glucagon receptor (UniProt P47871); test: cell-based or functional assay
glucagon receptor, sequence (P47871 26-477 limits assumed): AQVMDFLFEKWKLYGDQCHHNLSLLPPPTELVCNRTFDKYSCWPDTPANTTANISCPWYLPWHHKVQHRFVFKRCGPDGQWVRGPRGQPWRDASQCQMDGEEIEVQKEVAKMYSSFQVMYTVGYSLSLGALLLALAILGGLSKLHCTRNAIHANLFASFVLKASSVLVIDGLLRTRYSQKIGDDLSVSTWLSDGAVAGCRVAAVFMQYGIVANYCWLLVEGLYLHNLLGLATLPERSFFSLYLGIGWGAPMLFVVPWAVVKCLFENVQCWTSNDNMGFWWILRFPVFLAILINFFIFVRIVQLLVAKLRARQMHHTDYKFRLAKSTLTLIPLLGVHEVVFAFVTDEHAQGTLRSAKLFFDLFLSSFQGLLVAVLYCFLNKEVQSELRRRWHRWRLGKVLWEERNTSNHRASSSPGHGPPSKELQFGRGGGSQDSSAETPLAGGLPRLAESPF

[4] = target: glucagon receptor (UniProt P47871); test: cell-based or functional assay; remark: listed apart in the source
[5] = target: T1, GLP-1 receptor (Homo sapiens, UniProt P43220); test: cell-based or functional assay
Target sequence in this assay (P43220 24-463 limits assumed): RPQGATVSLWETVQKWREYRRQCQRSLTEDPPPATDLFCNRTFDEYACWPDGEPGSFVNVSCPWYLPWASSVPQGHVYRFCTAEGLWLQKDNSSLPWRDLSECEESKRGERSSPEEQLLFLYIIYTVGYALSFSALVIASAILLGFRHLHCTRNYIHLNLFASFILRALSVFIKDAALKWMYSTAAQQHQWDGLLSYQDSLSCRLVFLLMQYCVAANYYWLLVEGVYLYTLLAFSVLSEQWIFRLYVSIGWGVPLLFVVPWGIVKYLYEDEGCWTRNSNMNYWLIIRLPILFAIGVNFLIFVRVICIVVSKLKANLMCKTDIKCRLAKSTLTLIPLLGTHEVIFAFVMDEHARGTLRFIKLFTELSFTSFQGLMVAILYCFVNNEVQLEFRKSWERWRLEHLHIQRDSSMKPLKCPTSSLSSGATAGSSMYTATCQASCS

[6] = target: T1, GLP-1 receptor; test: GLP-receptor luciferase bioassay of samples incubated in 20% human plasma (restored activity); type: cell-based; conditions: 37° C.
Protocol: To explore the possible formation of DKP and simultaneous regeneration of the parent drug, the above-mentioned peptides were incubated in 20% human plasma at 37° C. for approximately 5 days. Samples were collected at different time points (0, 1, 2, and 5 days).
Target sequence in this assay (P43220 24-463): as the sequence (P43220 24-463 limits assumed) above

[7] = target: GLP-1 receptor (UniProt P43220 24-463, limits assumed); test: cell-based or functional assay
[8] = target: T2, GIP receptor (UniProt P48546 22-466); test: cell-based or functional assay
T2 sequence (looked up): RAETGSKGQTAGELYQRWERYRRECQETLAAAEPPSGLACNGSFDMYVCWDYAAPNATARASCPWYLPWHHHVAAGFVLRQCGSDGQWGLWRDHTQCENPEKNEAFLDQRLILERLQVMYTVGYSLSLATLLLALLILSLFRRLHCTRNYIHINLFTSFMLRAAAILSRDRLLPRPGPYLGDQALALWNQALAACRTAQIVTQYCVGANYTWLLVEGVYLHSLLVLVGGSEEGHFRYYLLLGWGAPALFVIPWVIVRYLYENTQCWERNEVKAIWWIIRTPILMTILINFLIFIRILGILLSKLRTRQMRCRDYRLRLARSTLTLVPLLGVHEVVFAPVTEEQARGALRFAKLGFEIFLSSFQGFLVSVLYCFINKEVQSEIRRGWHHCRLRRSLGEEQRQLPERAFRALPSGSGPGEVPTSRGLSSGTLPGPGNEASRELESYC

Molecule: CCCCCCCCCCCCCCCCCC(=O)NCCCC[C@@H](N)C(=O)N(C)CC(=O)NCCCC[C@H](NC(=O)[C@H](CC(=O)O)NC(=O)[C@H](CO)NC(=O)[C@@H](NC(=O)[C@H](Cc1ccccc1)NC(=O)[C@@H](NC(=O)CNC(=O)[C@H](CCC(=O)O)NC(=O)C(C)(C)NC(=O)[C@@H](N)Cc1ccccc1)[C@@H](C)O)[C@@H](C)O)C(=O)N[C@@H](CO)C(=O)N[C@H](C(=O)N[C@@H](Cc1ccc(O)cc1)C(=O)N[C@@H](CC(C)C)C(=O)N[C@@H](CC(=O)O)C(=O)N[C@@H](CCCCN)C(=O)N[C@@H](CCC(N)=O)C(=O)N[C@@H](C)C(=O)N[C@@H](C)C(=O)NC(C)(C)C(=O)N[C@@H](CCC(=O)O)C(=O)N[C@@H](Cc1ccccc1)C(=O)N[C@H](C(=O)N[C@@H](CC(N)=O)C(=O)N[C@@H](Cc1c[nH]c2ccccc12)C(=O)N[C@@H](CC(C)C)C(=O)N[C@@H](CC(C)C)C(=O)N[C@@H](C)C(=O)NCC(=O)NCC(=O)N1CCC[C@H]1C(=O)N[C@@H](CO)C(=O)N[C@@H](CO)C(=O)NCC(=O)N[C@@H](C)C(=O)N1CCC[C@H]1C(=O)N1CCC[C@H]1C(=O)N1CCC[C@H]1C(=O)N[C@@H](CO)C(=O)O)C(C)C)[C@@H](C)CC [Peptide E]
- half-life [1]: ~7 days
- half-life [2]: ~7 days

Molecule: E9, E16K20(lactam) glucagon(6-39) Cex peptide (Table 1 peptide 3)
- Glu IC50 [3]: 42 nM
- Glucagon IC50 [4]: 42 nM
- GLP-1 EC50 [5]: 36 nM

Molecule: CCCCCCCCCCCCCCCCCCCCCC(=O)NCCCC[C@@H](N)C(=O)N(C)CC(=O)NCCCC[C@H](NC(=O)[C@H](CO)NC(=O)[C@@H]1CCCN1C(=O)[C@@H]1CCCN1C(=O)[C@@H]1CCCN1C(=O)[C@H](C)NC(=O)CNC(=O)[C@H](CO)NC(=O)[C@H](CO)NC(=O)[C@@H]1CCCN1C(=O)CNC(=O)CNC(=O)[C@H](C)NC(=O)[C@H](CC(C)C)NC(=O)[C@H](CC(C)C)NC(=O)[C@H](Cc1c[nH]c2ccccc12)NC(=O)[C@H](CC(N)=O)NC(=O)[C@@H](NC(=O)[C@H](Cc1ccccc1)NC(=O)[C@H](CCC(=O)O)NC(=O)C(C)(C)NC(=O)[C@H](C)NC(=O)[C@H](C)NC(=O)[C@H](CCC(N)=O)NC(=O)[C@H](CCCCN)NC(=O)[C@H](CC(=O)O)NC(=O)[C@H](CC(C)C)NC(=O)[C@H](Cc1ccc(O)cc1)NC(=O)[C@@H](NC(=O)[C@H](CO)NC(=O)[C@H](Cc1ccc(O)cc1)NC(=O)[C@H](CC(=O)O)NC(=O)[C@H](CO)NC(=O)[C@@H](NC(=O)[C@H](Cc1ccccc1)NC(=O)[C@@H](NC(=O)CNC(=O)[C@H](CCC(=O)O)NC(=O)C(C)(C)NC(=O)[C@@H](N)Cc1ccc(O)cc1)[C@@H](C)O)[C@@H](C)O)[C@@H](C)CC)C(C)C)C(=O)O [Peptide H]
- half-life [1]: ~5 days
- half-life [2]: ~5 days

Molecule: [PLA6, E9, K12E16(Lactam)] glucagon(6-39) Cex peptide (Table 1 peptide 5)
- Glu IC50 [3]: 72 nM
- Glucagon IC50 [4]: 72 nM
- GLP-1 EC50 [5]: 6 nM

Molecule: CCCCCCCCCCCCCCCCCCCC(=O)NCCCC[C@@H](N)C(=O)N(C)CC(=O)Nc1ccc(C[C@H](NC(=O)[C@H](CC(=O)O)NC(=O)[C@H](CO)NC(=O)[C@@H](NC(=O)[C@H](Cc2ccccc2)NC(=O)[C@@H](NC(=O)CNC(=O)[C@H](CCC(=O)O)NC(=O)C(C)(C)NC(=O)[C@@H](N)Cc2ccccc2)[C@@H](C)O)[C@@H](C)O)C(=O)N[C@@H](CO)C(=O)N[C@H](C(=O)N[C@@H](Cc2ccc(O)cc2)C(=O)N[C@@H](CC(C)C)C(=O)N[C@@H](CC(=O)O)C(=O)N[C@@H](CCCCN)C(=O)N[C@@H](CCC(N)=O)C(=O)N[C@@H](C)C(=O)N[C@@H](C)C(=O)NC(C)(C)C(=O)N[C@@H](CCC(=O)O)C(=O)N[C@@H](Cc2ccccc2)C(=O)N[C@H](C(=O)N[C@@H](CC(N)=O)C(=O)N[C@@H](Cc2c[nH]c3ccccc23)C(=O)N[C@@H](CC(C)C)C(=O)N[C@@H](CC(C)C)C(=O)N[C@@H](C)C(=O)NCC(=O)NCC(=O)N2CCC[C@H]2C(=O)N[C@@H](CO)C(=O)N[C@@H](CO)C(=O)NCC(=O)N[C@@H](C)C(=O)N2CCC[C@H]2C(=O)N2CCC[C@H]2C(=O)N2CCC[C@H]2C(=O)N[C@@H](CO)C(N)=O)C(C)C)[C@@H](C)CC)cc1 (H-F[Aib]EGTFTSD[Phe(4-NH2)]([Sar-d(εLys)-Arachidoyl])SIYLDKQAA[Aib]EFVNWLLAGGPSSGAPPPS-NH2; N-terminus and C-terminus assumed)
- Relative activity to GLP-1 standard ([6]; 0 d): 30.9%
- Restored (activity relative to parent peptide) ([6]; 0 d): Restored 36%
- Change of activity over the time points in plasma ([6]; 0 to 5 d): Activity Restored
- Relative activity to GLP-1 standard ([6]; 1 d): 37.8%
- Restored (activity relative to parent peptide) ([6]; 1 d): Restored 45%
- Relative activity to GLP-1 standard ([6]; 5 d): 96.9%
- Restored (activity relative to parent peptide) ([6]; 5 d): Restored 133%
- half-life [2]: ~1 days

Molecule: CCCCCCCCCCCCCCCCCCCCCC(=O)NCCCC[C@@H](N)C(=O)N(C)CC(=O)NCCCC[C@H](NC(=O)[C@H](CO)NC(=O)[C@H](Cc1ccc(O)cc1)NC(=O)[C@H](CC(=O)O)NC(=O)[C@H](CO)NC(=O)[C@@H](NC(=O)[C@H](Cc1ccccc1)NC(=O)[C@@H](NC(=O)CNC(=O)[C@H](CCC(=O)O)NC(=O)C(C)(C)NC(=O)[C@@H](N)Cc1ccc(O)cc1)[C@@H](C)O)[C@@H](C)O)C(=O)N[C@@H](Cc1ccc(O)cc1)C(=O)N[C@@H](CC(C)C)C(=O)N[C@@H](CC(=O)O)C(=O)N[C@@H](CCCCN)C(=O)N[C@@H](CCC(N)=O)C(=O)N[C@@H](C)C(=O)N[C@@H](C)C(=O)NC(C)(C)C(=O)N[C@@H](CCC(=O)O)C(=O)N[C@@H](Cc1ccccc1)C(=O)N[C@H](C(=O)N[C@@H](CC(N)=O)C(=O)N[C@@H](Cc1c[nH]c2ccccc12)C(=O)N[C@@H](CC(C)C)C(=O)N[C@@H](CC(C)C)C(=O)N[C@@H](C)C(=O)NCC(=O)NCC(=O)N1CCC[C@H]1C(=O)N[C@@H](CO)C(=O)N[C@@H](CO)C(=O)NCC(=O)N[C@@H](C)C(=O)N1CCC[C@H]1C(=O)N1CCC[C@H]1C(=O)N1CCC[C@H]1C(=O)N[C@@H](CO)C(=O)O)C(C)C [Peptide F]
- half-life [1]: < 1 days

Molecule: CCCCCCCCCCCCCCCCCCCCCC(=O)NCCCC[C@@H](N)C(=O)N(C)CC(=O)NCCCC[C@H](NC(=O)[C@H](CC(=O)O)NC(=O)[C@H](CC(C)C)NC(=O)[C@H](Cc1ccc(O)cc1)NC(=O)[C@@H](NC(=O)[C@H](CO)NC(=O)[C@H](Cc1ccc(O)cc1)NC(=O)[C@H](CC(=O)O)NC(=O)[C@H](CO)NC(=O)[C@@H](NC(=O)[C@H](Cc1ccccc1)NC(=O)[C@@H](NC(=O)CNC(=O)[C@H](CCC(=O)O)NC(=O)C(C)(C)NC(=O)[C@@H](N)Cc1ccc(O)cc1)[C@@H](C)O)[C@@H](C)O)[C@@H](C)CC)C(=O)N[C@@H](CCC(N)=O)C(=O)N[C@@H](C)C(=O)N[C@@H](C)C(=O)NC(C)(C)C(=O)N[C@@H](CCC(=O)O)C(=O)N[C@@H](Cc1ccccc1)C(=O)N[C@H](C(=O)N[C@@H](CC(N)=O)C(=O)N[C@@H](Cc1c[nH]c2ccccc12)C(=O)N[C@@H](CC(C)C)C(=O)N[C@@H](CC(C)C)C(=O)N[C@@H](C)C(=O)NCC(=O)NCC(=O)N1CCC[C@H]1C(=O)N[C@@H](CO)C(=O)N[C@@H](CO)C(=O)NCC(=O)N[C@@H](C)C(=O)N1CCC[C@H]1C(=O)N1CCC[C@H]1C(=O)N1CCC[C@H]1C(=O)N[C@@H](CO)C(=O)O)C(C)C [Peptide G]
- half-life [1]: > 7 days
- half-life [2]: > 7 days

Molecule: Y[Aib]EGTFTSDYSK([Sar-dK-C22 acyl])YLDKQAA[Aib]EFVNWLLAGGPSSGAPPPS-NH2 [Peptide F of Example 8 with C22-acylated (d)Lysine-sarcosine dipeptide on Lysine at position 12]
- EC50-GLP, relative activity to GLP-1 standard [7]: 17.4%
- EC50-GIP, relative activity to GIP standard [8]: 30.2%

Molecule: Y[Aib]EGTFTSDYSIYLDK([Sar-dK-C22 acyl])QAA[Aib]EFVNWLLAGGPSSGAPPPS-NH2 [Peptide G with C22-acylated (d)Lysine-sarcosine dipeptide on Lysine at position 16]
- EC50-GLP, relative activity to GLP-1 standard [7]: 24.7%
- EC50-GIP, relative activity to GIP standard [8]: 58.5%

Molecule: Y[Aib]EGTFTSDYSIYLDKQAA[Aib]EFVNWLLAGGPSSGAPPPSK([Sar-dK-Docosanoyl])-NH2 [Peptide H with C22-acylated (d)Lysine-sarcosine dipeptide on Lysine at position 40]
- EC50-GLP, relative activity to GLP-1 standard [7]: 37.1%
- EC50-GIP, relative activity to GIP standard [8]: 81.6%
